The values that follow come from patent US20220409582A1, “COMBINATION THERAPIES COMPRISING PANOBINOSTAT FOR THE TREATMENT OF CHOLANGIOCARCINOMA” (SEALD AS, priority 2019, published 2022).

Like-named read-outs stand apart in the source and are kept apart here.

Test [1] relates to CC-SW-1 cell line. Kind of test: Cell TitreGlo cell viability, CC-SW-1 cholangiocarcinoma cells. The class given is cell-based, human. The settings on record: for IC50: Homo sapiens; for Therapeutic index Combination: panobinostat + secondary drug at IC20. On the procedure:
(§1) Various cholangiocarcinoma (CCA) cell lines were used for this drug screening.
(§2) For panobinostat as single substance treatment seven cholangiocarcinoma cell lines were used. Panobinostat was then tested in combination with 23 other drugs on four cholangiocarcinoma cell lines. A single concentration of the combination drug was added based on a previously determined IC20 value for the combination drug tested alone on each of the four cell lines.
(§3) The viability data for each plate were normalized to the average of eight replicates of DMSO at 0.1% and seven replicates of Benzethonium Chloride (BzCl) at 100 uM. BzCl serves as a cell killing control that accounts for background signal from dead cells in the CTG luminescence assay. Raw luminescence data were normalized according to the following equation: […]
(§4) The normalized data for each dose response curve were then fit using the function drm from the R package drc. This function uses a four parameter log-logistic curve to fit the dose response data, resulting in values for curve minimum, maximum, IC50, and slope. In the case where a log-logistic curve could not be fit to the data, a logistic curve was used instead.

In test [2] the test system is HuCC-T1 cell line. Nature of the test: Cell TitreGlo cell viability, HuCC-T1 cholangiocarcinoma cells. The class given is cell-based, human. Conditions: for Therapeutic index Combination: panobinostat + secondary drug at IC20; for IC50: Homo sapiens, HuCCT-1. The protocol: as §1, §2, §3, §4
The subject of test [3] is EGI-1 cell line. Nature of the test: Cell TitreGlo cell viability, EGI-1 cholangiocarcinoma cells. Conditions: for Delta IC50 absolute value: IC50 panobinostat alone minus IC50 panobinostat + secondary drug, positive = potentiation; for Therapeutic index Combination: panobinostat + secondary drug at IC20. The class given is cell-based, human. The protocol: as §1, §2, §3, §4

The subject of test [4] is TFK-1 cell line. Kind of test: Cell TitreGlo cell viability, TFK-1 cholangiocarcinoma cells. The settings on record: for Therapeutic index Combination: panobinostat + secondary drug at IC20. The format is cell-based, human. The protocol: as §1, §2, §3, §4
Test [5] concerns CC-LP-1 cell line. Nature of the test: Cell TitreGlo cell viability, CC-LP-1 cholangiocarcinoma cells. The class given is cell-based. The settings on record: Homo sapiens, single substance treatment, cell viability 48 h post drug addition. On the procedure:
as §1
(§5) For panobinostat as single substance treatment seven cholangiocarcinoma cell lines were used. Panobinostat was then tested in combination with 23 other drugs on four cholangiocarcinoma cell lines. A single concentration of the combination drug was added based on a previously determined IC20 value for the combination drug tested alone on each of the four cell lines. The cell line TFK-1 was insensitive to some tested drugs.

In test [6] the test system is KMBC cell line. Nature of the test: Cell TitreGlo cell viability, KMBC cholangiocarcinoma cells. The format is cell-based. The settings on record: single substance treatment, cell viability 48 h post drug addition. On the procedure: as §1, §5
For test [7], the system named is KMCH-1 cell line. Nature of the test: Cell TitreGlo cell viability, KMCH-1 combined cholangio- and hepatocarcinoma cells. The class given is cell-based. The settings on record: single substance treatment, cell viability 48 h post drug addition. The protocol: as §1, §5
The subject of test [8] is normal cholangiocytes, cell line H69 (CVCL_8121). The settings on record: read-out: H69 cell line Mono, panobinostat alone.
Text: The effects of various cytotoxic agents on the toxicity of panobinostat in normal cholangiocytes was examined. The cell line H69 (CVCL_8121) was used in experimental procedures described above to determine the IC50 value for panobinostat (the primary drug) on these cells when used in combination with cytotoxic agents (secondary drug) added to the cells at their IC20 concentrations.
The larger difference the more toxic the combination.
[9] abbreviates: single substance treatment, CC-SW-1, cell viability 48 h post drug addition, read-out: IC50.
[10] abbreviates: IC50 in H69 normal cells / IC50 in CC-SW-1.
The mark [11] stands for this setting: IC50 in H69 normal cells / IC50 in HuCCT-1.
Setting [12] is: IC50 in H69 normal cells / IC50 in EGI-1.
Where [13] appears, read: Homo sapiens, 48 h, single substance treatment, TFK-1, cell viability 48 h post drug addition, read-out: IC50.
Setting [14] is: IC50 in H69 normal cells / IC50 in TFK-1.

In the case of `CC[C@@]1(O)C(=O)OCc2c1cc1n(c2=O)Cc2cc3c(CN(C)C)c(O)ccc3nc2-1` [Topotecan, 9-[(dimethylamino)methyl]-10-hydroxy-(45)-camptothecin], the IC50 in test [1] (setting [9]) is 54 nM; in test [4] (setting [13]), 373 nM. Moreover, the “Therapeutic index Combination” value is reported as 5.1 in test [1] (setting [10]), 1.5 in test [2] (setting [11]), 2.8 in test [3] (setting [12]) and 2.9 in test [4] (setting [14]). Besides, the “Delta IC50 absolute value” in test [3] (EGI-1) was 33.1 nM; in test [4] (TFK-1, IC50 panobinostat alone minus IC50 panobinostat + secondary drug, positive = potentiation), 22.3 nM.
Turning to `Cc1nc(Nc2ncc(C(=O)Nc3c(C)cccc3Cl)s2)cc(N2CCN(CCO)CC2)n1` [Dasatinib, N-(2-chloro-6-methylphenyl)-2-({6-[4-(2-hydroxyethyl)piperazin-1-yl]-2-methylpyrimidin-4-yl}amino)-1,3-thiazole-5-carboxamide], the “Therapeutic index Combination” value came out at 7.2 in test [1] (setting [10]), 1.3 in test [2] (setting [11]), 1.4 in test [3] (setting [12]) and 4.3 in test [4] (setting [14]). In addition, the “Delta IC50 absolute value” in test [3] (EGI-1) amounted to 13.5 nM. In test [4] (Homo sapiens, TFK-1, single substance, read-out: IC20 dose of single substance curve), the IC20 (commonly the point of the concentration-response curve where the effect stands at 20%) was determined as 5 nM. Besides, in test [4] (TFK-1, 0.1-1000 nM, 48 h), the “effect on cell viability as single substance treatment” value is on record as “only limited efficacy”.
Consider `Cc1[nH]c2ccccc2c1CCNCc1ccc(/C=C/C(=O)NO)cc1` [Panobinostat, (E)-N-hydroxy-3-[4-[[2-(2-methyl-1H-indol-3-yl)ethylamino]methyl]phenyl]prop-2-enamide], for which the IC50 in test [1] (panobinostat alone, read-out: CC-SW-1 cell line Mono) is 18.4 nM; in test [1] (setting [9]) it was 12 nM; in test [2] (panobinostat alone, read-out: HuCCT-1 cell line Mono), 42.4 nM; in test [2] (single substance treatment, HuCC-T1, cell viability 48 h post drug addition, read-out: IC50) it was 90 nM; in test [3] (Homo sapiens, EGI-1, panobinostat alone, read-out: EGI-1 cell line Mono), 62.9 nM; in test [3] (single substance treatment, EGI-1, cell viability 48 h post drug addition, listed as panobinostat, read-out: IC50), 99 nM. Besides, the IC50 in test [3] (single substance treatment, EGI-1, cell viability 48 h post drug addition, read-out: IC50) was found to be 36 nM; in test [5], 81 nM; in test [4] (setting [13]) it was 70 nM; in test [4] (Homo sapiens, panobinostat alone, read-out: TFK-1 cell line Mono), 51.8 nM; in test [4] (single substance treatment, TFK-1, cell viability 48 h post drug addition, read-out: IC50) it was 95 nM; in test [6] it was 88 nM. The results for the IC50 in test [7] and in test [8] were 99 nM and 56.8 nM, respectively. The “Therapeutic index Mono” value is on record as 3.1 in test [1] (IC50 in H69 normal cells / IC50 in CC-SW-1, panobinostat alone); 0.9 in test [2] (IC50 in H69 normal cells / IC50 in HuCCT-1, panobinostat alone); 0.9 in test [3] (IC50 in H69 normal cells / IC50 in EGI-1, panobinostat alone); 1.1 in test [4] (IC50 in H69 normal cells / IC50 in TFK-1, panobinostat alone).
